Reference: patent publication US7915292B2, “Antibacterial quinoline derivatives” (Janssen Pharmaceutica NV, priority 2005, dated 2011)
Converted amounts (≈) assume the structure as drawn. Counter-ions that a name gives are not always drawn.

Columns and labels:
M. Smegmatis ATCC607 = test: In-vitro anti-bacterial activity against strain M. smegmatis ATCC607 (Alamar Blue growth inhibition); type: cell-based; settings: 48 hours incubation; for IC50: Mycolicibacterium smegmatis, read-out: M. smegmatis pIC50 (converted)
Method: Serial five-fold dilutions (45 μl in 180 μl) were made directly in the microtiter plates from column 2 to 11 using a customised robot system (Zymark Corp., Hopkinton, Mass.). Pipette tips were changed after every 3 dilutions to minimize pipetting errors with high hydrophobic compounds. Untreated control samples with (column 1) and without (column 12) inoculum were included in each microtiter plate. Approximately 250 CFU per well of bacteria inoculum, in a volume of 100 μl in 2.8× Mueller-Hinton broth medium, was added to the rows […]. The same volume of broth medium without inoculum was added to column 12 in row A to H. The cultures were incubated at 37° C. for 48 hours in a humidified 5% CO2 atmosphere (incubator with open air valve and continuous ventilation). At the end of incubation, two days after inoculation, the bacterial growth was quantitated fluorometrically. Therefore Alamar Blue (10×) was added to all wells in a volume of 20 μl and plates were incubated for another 2 hours at […] The fluorescence was read in a computer-controlled fluorometer (Cytofluor, Biosearch) at an excitation wavelength of 530 nm and an emission wavelength of 590 nm (gain 30). The percentage growth inhibition achieved by the compounds was calculated according to standard methods and expressed as pIC50 values.

[1] = system: Mycobacterium tuberculosis (strain H37RV); test: In-vitro method for testing compounds against M. tuberculosis (resazurin growth inhibition); type: cell-based; settings: 7 days incubation; for IC50: Mycobacterium tuberculosis, 168 h, read-out: M. tuberculosis pIC50 (converted)
ECO 25922 = test: Microtitre plate assay, IC90 determination, ECO 25922; type: cell-based, E. coli; settings: 90% inhibitory concentration for bacterial growth, strain ECO 25922, 24 hours at 37° C.; for IC90: Escherichia coli, read-out: IC90 (μg/ml) ECO 25922
Method: Stocks (0.5 ml/tube) were stored at -70° C. until use. Bacteria titrations were performed in microtiter plates to detect the TCID50, in which the TCID50 represents the dilution that gives rise to bacterial growth in 50% of inoculated cultures. In general, an inoculum level of approximately 100 TCID50 was used for susceptibility testing. […] Serial five-fold dilutions (45 μl in 180 μl) were made directly in the microtiter plates from column 2 to reach column 11. Untreated control samples with (column 1) and without (column 12) inoculum were included in each microtiter plate. Depending on the bacteria type, approximately 10 to 60 CFU per well of bacteria inoculum (100 TCID50), in a volume of 100 μl in 2.8× Mueller-Hinton broth medium, was added to the rows […]. The same volume of broth medium without inoculum was added to column 12 in row A to H. The cultures were incubated at 37° C. for 24 hours under a normal atmosphere (incubator with open air valve and continuous ventilation). At the end of incubation, one day after inoculation, the bacterial growth was quantitated fluorometrically. Therefore resazurin (0.6 mg/ml) was added in a volume of 20 μl to all wells 3 hours after inoculation, and the plates were re-incubated overnight. A change in colour from blue to pink indicated the growth of bacteria. The fluorescence was read in a computer-controlled fluorometer (Cytofluor Biosearch) at an excitation wavelength of 530 nm and an emission wavelength of 590 nm. The % growth inhibition achieved by the compounds was calculated according to standard methods. The IC90 (expressed in μg/ml) was defined as the 90% inhibitory concentration for bacterial growth.

COc1cccc(CN(CCN(C)C)C(c2ccccc2)c2cc3cc(Br)ccc3nc2OC)c1 (stereo not shown) (as salt: oxalate) [Compound 20]
melting point: 142 °C

Cc1ccc2nc(-c3ccccc3)c(C(c3ccccc3)N(C)CCN(C)C)cc2c1 (stereo not shown) (as salt: oxalate) [Compound 37]
melting point: 142 °C

COc1nc2ccc(Br)cc2cc1C(c1ccccc1)N(CCN(C)C)c1ccccc1 (stereo not shown) [Compound 18]
melting point: 120 °C
IC50 (M. Smegmatis ATCC607): 2000 nM

Cc1ccc2nc(-c3ccccc3)c(C(c3ccccc3)N(CC(=O)N(C)C)Cc3ccccc3)cc2c1 (stereo not shown) [Compound 45]
IC50 (M. Smegmatis ATCC607): 1000 nM
IC50 [1]: 10000 nM

Cc1ccc2nc(-c3ccccc3)c(C(c3ccccc3)N(CC(=O)N(C)CC#N)Cc3ccccc3)cc2c1 (stereo not shown) [Compound 46]
M. smegmatis pIC50 (M. Smegmatis ATCC607): 5.8
M. tuberculosis pIC50 [1]: 5.0

CCN(CC)C(=O)CN(Cc1ccccc1)C(c1ccccc1)c1cc2cc(C)ccc2nc1-c1ccccc1 (stereo not shown) [Compound 47]
IC50 (M. Smegmatis ATCC607): 316 nM
IC50 [1]: 6310 nM

CCN(Cc1ccccc1)C(=O)CN(Cc1ccccc1)C(c1ccccc1)c1cc2cc(C)ccc2nc1-c1ccccc1 (stereo not shown) [Compound 48]
M. tuberculosis pIC50 [1]: 4.1

CCCN(CCC)C(=O)CN(Cc1ccccc1)C(c1ccccc1)c1cc2cc(C)ccc2nc1-c1ccccc1 (stereo not shown) [Compound 49]
M. smegmatis pIC50 (M. Smegmatis ATCC607): 5.2
M. tuberculosis pIC50 [1]: 4.6

CNC(=O)CN(Cc1ccccc1)C(c1ccccc1)c1cc2cc(Br)ccc2nc1-c1ccccc1 (stereo not shown) [Compound 52]
IC90 (μg/ml) ECO 25922 (ECO 25922): 13.8 µg/mL (≈ 25.1 µM)
M. smegmatis pIC50 (M. Smegmatis ATCC607): 5.8

O=C(CN(Cc1ccccc1)C(c1ccccc1)c1cc2ccccc2nc1-c1ccccc1)N1CCCC1 (stereo not shown) [Compound 55]
IC90 (μg/ml) ECO 25922 (ECO 25922): 12.9 µg/mL (≈ 25.2 µM)
M. smegmatis pIC50 (M. Smegmatis ATCC607): 6.0
M. tuberculosis pIC50 [1]: 4.3

Cc1ccc2nc(-c3ccccc3)c(C(c3ccccc3)N(CC(=O)N3CCCC3)Cc3ccccc3)cc2c1 (stereo not shown) [Compound 64]
M. smegmatis pIC50 (M. Smegmatis ATCC607): 6.5
M. tuberculosis pIC50 [1]: 5.0

Cc1ccc2nc(-c3ccccc3)c(C(c3ccccc3)N(CC(=O)N3CCSC3)Cc3ccccc3)cc2c1 (stereo not shown) [Compound 65]
IC90 (μg/ml) ECO 25922 (ECO 25922): 13.7 µg/mL (≈ 25.2 µM)
M. smegmatis pIC50 (M. Smegmatis ATCC607): 6.5
M. tuberculosis pIC50 [1]: 5.0

Cc1ccc2nc(-c3ccccc3)c(C(c3ccccc3)N(CC(=O)N3CCC(C)CC3)Cc3ccccc3)cc2c1 (stereo not shown) [Compound 67]
M. smegmatis pIC50 (M. Smegmatis ATCC607): 6.0
M. tuberculosis pIC50 [1]: 5.7

Cc1ccc2nc(-c3ccccc3)c(C(c3ccccc3)N(CC(=O)N3CCOCC3)Cc3ccccc3)cc2c1 (stereo not shown) [Compound 68]
M. smegmatis pIC50 (M. Smegmatis ATCC607): 6.5
M. tuberculosis pIC50 [1]: 5.1

Cc1ccc2nc(-c3ccccc3)c(C(c3ccccc3)N(CC(=O)N3CC(C)OC(C)C3)Cc3ccccc3)cc2c1 (stereo not shown) [Compound 71]
M. smegmatis pIC50 (M. Smegmatis ATCC607): 5.7
M. tuberculosis pIC50 [1]: 5.1

Cc1ccc2nc(-c3ccccc3)c(C(c3ccccc3)N(CC(=O)N3Cc4ccccc4C3)Cc3ccccc3)cc2c1 (stereo not shown) [Compound 73]
M. tuberculosis pIC50 [1]: 4.5

Cc1ccc2nc(-c3ccccc3)c(C(c3ccccc3)N(CC(=O)N3CCc4ccccc4C3)Cc3ccccc3)cc2c1 (stereo not shown) [Compound 74]
IC90 (μg/ml) ECO 25922 (ECO 25922): 14.8 µg/mL (≈ 25.2 µM)
M. smegmatis pIC50 (M. Smegmatis ATCC607): 5.2
M. tuberculosis pIC50 [1]: 5.0

Cc1ccc2nc(-c3ccccc3)c(C(c3ccccc3)N(CC(=O)N3CCN(c4ccccn4)CC3)Cc3ccccc3)cc2c1 (stereo not shown) [Compound 75]
M. tuberculosis pIC50 [1]: 5.4

Cc1ccc2nc(-c3ccccc3)c(C(c3ccccc3)N(CC(=O)N3CCN(c4ncccn4)CC3)Cc3ccccc3)cc2c1 (stereo not shown) [Compound 76]
M. tuberculosis pIC50 [1]: 5.0

Cc1ccc2nc(-c3ccccc3)c(C(c3ccccc3)N(CC(=O)N3CCN(Cc4ccccc4)CC3)Cc3ccccc3)cc2c1 (stereo not shown) [Compound 78]
M. tuberculosis pIC50 [1]: 6.05

Cc1ccc2nc(-c3ccccc3)c(C(c3ccccc3)N(CC(=O)N3CCC(Cc4ccccc4)CC3)Cc3ccccc3)cc2c1 (stereo not shown) [Compound 79]
M. tuberculosis pIC50 [1]: 5.7

COc1nc2ccc(Br)cc2cc1C(c1ccccc1)N(C)CC(=O)N1CCSCC1 (stereo not shown) [Compound 88]
M. smegmatis pIC50 (M. Smegmatis ATCC607): 4.9
M. tuberculosis pIC50 [1]: 4.05

COc1nc2ccc(Br)cc2c(Cl)c1C(c1ccccc1)N(C)CC(=O)N1CCSCC1 (stereo not shown) [Compound 97]
M. smegmatis pIC50 (M. Smegmatis ATCC607): 4.4
M. tuberculosis pIC50 [1]: 4.2

COc1nc2ccc(Br)cc2cc1C(c1ccccc1)N(CC(=O)N1CCOCC1)Cc1ccoc1 (stereo not shown) [Compound 102]
IC90 (μg/ml) ECO 25922 (ECO 25922): 13.8 µg/mL (≈ 25.1 µM)
M. smegmatis pIC50 (M. Smegmatis ATCC607): 5.8

COc1nc2ccc(Br)cc2cc1C(c1ccccc1)N(CC(=O)N1CCCC1)Cc1ccccc1 (stereo not shown) [Compound 103]
IC90 (μg/ml) ECO 25922 (ECO 25922): 13.7 µg/mL (≈ 25.2 µM)
M. smegmatis pIC50 (M. Smegmatis ATCC607): 4.5

COc1nc2ccc(Br)cc2cc1C(c1ccccc1)N(CC(=O)N1CCOCC1)Cc1ccccc1 (stereo not shown) [Compound 105]
IC90 (μg/ml) ECO 25922 (ECO 25922): 14.1 µg/mL (≈ 25.2 µM)
M. smegmatis pIC50 (M. Smegmatis ATCC607): 6.0

COc1nc2ccc(Br)cc2cc1C(c1ccccc1)N(CC(=O)N1CCSCC1)Cc1ccccc1 (stereo not shown) [Compound 106]
IC90 (μg/ml) ECO 25922 (ECO 25922): 14.5 µg/mL (≈ 25.1 µM)
M. smegmatis pIC50 (M. Smegmatis ATCC607): 6.4
M. tuberculosis pIC50 [1]: <4

COc1nc2ccc(Br)cc2cc1C(c1ccccc1)N(CC(=O)N1CCOCC1)Cc1ccccc1Cl (stereo not shown) [Compound 108]
IC90 (μg/ml) ECO 25922 (ECO 25922): 14.9 µg/mL (≈ 25 µM)
M. smegmatis pIC50 (M. Smegmatis ATCC607): 5.9

COc1nc2ccc(Br)cc2cc1C(c1ccccc1)N(CC(=O)N1CCOCC1)Cc1cccnc1 (stereo not shown) [Compound 111]
IC90 (μg/ml) ECO 25922 (ECO 25922): 14.1 µg/mL (≈ 25.1 µM)
M. smegmatis pIC50 (M. Smegmatis ATCC607): 5.8

COc1nc2ccc(Br)cc2cc1C(c1ccccc1)N(CCC(=O)N1CCOCC1)Cc1ccccc1 (stereo not shown) [Compound 120]
IC90 (μg/ml) ECO 25922 (ECO 25922): 14.4 µg/mL (≈ 25.1 µM)
M. smegmatis pIC50 (M. Smegmatis ATCC607): 5.6

COc1nc2ccc(C#N)cc2cc1C(c1ccccc1)N(CC(=O)N1CCOCC1)Cc1ccccc1 (stereo not shown) [Compound 124]
IC90 (μg/ml) ECO 25922 (ECO 25922): 12.7 µg/mL (≈ 25.1 µM)
M. smegmatis pIC50 (M. Smegmatis ATCC607): 5.05

CCOC(=O)CN(C)C(c1ccccc1)c1cc2cc(Br)ccc2nc1OC (stereo not shown) [Compound 131]
IC50 (M. Smegmatis ATCC607): 1000 nM
IC50 [1]: 31600 nM

CCOC(=O)CN(C(C)C)C(c1ccccc1)c1cc2cc(Br)ccc2nc1OC (stereo not shown) [Compound 133]
M. smegmatis pIC50 (M. Smegmatis ATCC607): 5.7
M. tuberculosis pIC50 [1]: 4.4

CCOC(=O)CN(Cc1ccoc1)C(c1ccccc1)c1cc2cc(Br)ccc2nc1OC (stereo not shown) [Compound 136]
M. smegmatis pIC50 (M. Smegmatis ATCC607): 4.4

CCOC(=O)CN(Cc1ccccn1)C(c1ccccc1)c1cc2cc(Br)ccc2nc1OC (stereo not shown) [Compound 139]
M. smegmatis pIC50 (M. Smegmatis ATCC607): 4.3

CCOC(=O)CN(Cc1ccccc1)C(c1ccccc1)c1cc2cc(Br)ccc2nc1-c1ccccc1 (stereo not shown) [Compound 146]
IC90 (ECO 25922): 14.2 µg/mL (≈ 25.1 µM)
IC50 (M. Smegmatis ATCC607): 501 nM
IC50 [1]: 50100 nM

CCOC(=O)CN(Cc1ccccc1)C(c1ccccc1)c1cc2cc(C)ccc2nc1-c1ccccc1 (stereo not shown) [Compound 150]
IC50 (M. Smegmatis ATCC607): 398 nM
IC50 [1]: 39800 nM

CCOC(=O)CN(Cc1ccccc1)C(c1ccccc1)c1cc2cc(C#N)ccc2nc1OC (stereo not shown) [Compound 151]
melting point: 148 °C

CCOC(=O)CN(Cc1ccccc1)C(c1ccccc1)c1cc2cc(-c3cccnc3)ccc2nc1-c1ccccc1 (stereo not shown) [Compound 152]
IC90 (ECO 25922): 14.2 µg/mL (≈ 25.2 µM)
IC50 (M. Smegmatis ATCC607): 2510 nM

COc1nc2ccc(Br)cc2cc1C(c1ccccc1)[N+]([O-])(CC(=O)N1CCOCC1)Cc1ccccc1 (stereo not shown) [Compound 154]
IC50 (M. Smegmatis ATCC607): 3980 nM
